Experimental findings from paper PMC3797685, “Enhanced Production, Purification, Characterization and Mechanism of Action of Salivaricin 9 Lantibiotic Produced by Streptococcus salivarius NU10” (PLoS ONE, 2013) are described below.

The test system of assay [1] is Lactococcus lactis strain ATCC11454. Nature of the assay: Induction assay, nisin-producing strain ATCC11454. The conditions noted are these: 0.05 ml test sample, 18 h, well diffusion assay. Type of assay: cell-based.
Assay [2] deals with S. salivarius strain YU10. Nature of the assay: Salivaricin induction assay, strain YU10. Format: cell-based, Streptococcus salivarius. The conditions noted are these: 0.05 ml test sample (titre 4 AU/ml) added to washed cells in M17YESUCa, 18 h anaerobic; well diffusion assay, induced vs control tube. The text has this: (§1) The bacteriocin-inducing activities present in crude extracts of S. salivarius strains NU10, YU10, K12 and in FPLC-purified salivaricin 9 peptide fractions having anti-Micrococcus luteus activity was investigated in this study. The crude extracts of producer cells designated as BLIS-NU10, BLIS-YU10 and BLIS-K12 were isolated by acidic methanol extraction of the producer cells as described previously. These crude BLIS extracts had the potential to contain at least two lantibiotics on the basis of PCR assessment for their content of lantibiotic structural genes. Strains NU10 and YU10 had the structural genes for salivaricin 9 and salivaricin A and strain K12 had salivaricin A and salivaricin B structural genes. […] Colonies from an 18 h culture of each S. salivarius strain NU10, YU10 and K12 grown anaerobically on BACa agar was used to inoculate 10 ml of M17YESUCa broth and incubated again under the same conditions. The cells were then collected by centrifugation at 18000 x g for 5 min and washed three times in saline buffer to reduce the levels of cell surface-associated lantibiotic before suspending in 10 ml of the same buffer. […] Induction of salivaricin 9 or salivaricin A production was recorded as inhibitory zones surrounding samples from the induced tubes but not the control tubes. […]
In general terms: In agar diffusion tests the substance spreads into inoculated agar from a disc or well.

Assay [3] deals with S. salivarius strain NU10. Nature of the assay: Salivaricin induction assay, strain NU10. Format: cell-based, Streptococcus salivarius. Particulars: 0.05 ml test sample (titre 4 AU/ml) added to washed cells in M17YESUCa, 18 h anaerobic; well diffusion assay, induced vs control tube.
Excerpt: as §1

For a further assay, the system named is S. salivarius strain K12. Nature of the assay: Salivaricin induction assay, strain K12. Format: cell-based, Streptococcus salivarius. Particulars: 0.05 ml test sample (titre 4 AU/ml) added to washed cells in M17YESUCa, 18 h anaerobic; well diffusion assay, induced vs control tube.
Excerpt: as §1

Assay [4] relates to Micrococcus luteus ATCC10240. Description: Flow cytometry analysis of membrane disruption (propidium iodide). Format: cell-based. Particulars: 20 µg/ml; PI 25 µM; 30 minutes at 37°C; triplicate. The method, then: For membrane integrity assay using the dye propidium iodide (PI), cultures of Micrococcus luteus ATCC10240 were grown over night at 37°C in THB supplemented with 0.5% glucose (THBG) and then diluted with fresh THBG to an OD600 of 0.1. The cells were centrifuged at 4000 x g for 5 minutes at 4°C and washed twice with washing buffer (2 mM HEPES + 2 mM glucose) before re-suspending in the same buffer and adjusting to OD600 0.1. The cells were exposed to salivaricin 9 (12, 20 µg/ml) or nisin (20 µg/ml) (Sigma) and PI (final concentration 25 µM) before incubating for 30 minutes at 37°C. Nuclease-Free Water (Promega, USA) was added instead of antibiotic and served as a negative control. Samples were analyzed using BD FACSCanto^TM II flow cytometer using excitation at 488 nm and with the standard filter setup. Each sample was examined in triplicate and the geometric mean fluorescence intensity (MFI) of gated cell populations was calculated (Figure 9).
For orientation: In flow cytometry, cells or beads pass a laser one at a time.

Turning to “Nisin: pore forming lantibiotic (Sigma), produced by Lactococcus lactis (ITSISLCTPGCKTGALMGCNMKTATCHCSIHVSK; not fully specified; Lantibiotic nisin-A; UniProt P13068 24-57, looked up) [reference compound]”, the “Preparation induces inhibitor production in ATCC11454” value in assay [1] was “Yes”. For the same substance, the “Preparation induces inhibitor production in YU10” value in assay [2] was “No”. In assay [3], the “Preparation induces inhibitor production in NU10” value is “No”. In the assay with S. salivarius strain K12, the “Preparation induces inhibitor production in K12” value is recorded as “No”. Also, in assay [4], the “Propidium iodide uptake, geometric mean fluorescence intensity (MFI)” value was “large increase”.
